From PMC12459614 (European journal of medicinal chemistry, 2025)

Tests used:
[1] = target: T1, hGPR17L (Homo sapiens, UniProt Q13304); test: Calcium mobilization assay; type: cell-based; conditions: for antagonist activity at GPR17: data not shown; for Emax: 1321-N1, read-out: % Efficacy Avg ± SEM; for IC50 / Calcium assay IC50(μM) Avg ± SEM: reported only when efficacy ≥75%
[2] = target: T1, hGPR17L; test: cAMP accumulation HTRF assay; conditions: cAMP accumulation assay
[3] = tested on: GPR17; conditions: cited from earlier work
[4] = target: T1, hGPR17L; test: cAMP signaling in GLUTag cells expressing hGPR17L; type: cell-based; conditions: for attenuation of MDL-mediated inhibition of forskolin-stimulated cAMP: 10 μM compound, 100 nM MDL, 10 μM forskolin
[5] = target: T1, hGPR17L; test: GLP-1 secretion assay in GLUTag cells expressing hGPR17L; type: cell-based; conditions: 10 μM compound; 6.3 μM MDL; 10 μM forskolin and 10 μM IBMX
[6] = Calcium Assay IC50(μM) Avg ± SEM, Table 2
[7] = Calcium assay IC50(μM) Avg ± SEM, Table 3

T1 sequence (Q13304 whole entry): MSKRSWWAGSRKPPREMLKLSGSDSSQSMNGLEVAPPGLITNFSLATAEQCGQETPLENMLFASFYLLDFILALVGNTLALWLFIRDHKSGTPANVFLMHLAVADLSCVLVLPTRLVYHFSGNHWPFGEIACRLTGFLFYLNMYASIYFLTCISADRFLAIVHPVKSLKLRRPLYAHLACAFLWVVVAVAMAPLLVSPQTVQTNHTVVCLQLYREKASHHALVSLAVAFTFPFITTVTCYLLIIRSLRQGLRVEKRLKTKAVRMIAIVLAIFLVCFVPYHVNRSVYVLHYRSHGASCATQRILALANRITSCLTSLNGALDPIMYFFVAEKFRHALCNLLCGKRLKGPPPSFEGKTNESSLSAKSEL

Compound: CC(C)[C@@H](O)CC[C@@H](C)[C@H]1CC[C@H]2[C@@H]3CC=C4C[C@@H](O)CC[C@]4(C)[C@H]3CC[C@]12C [24S-HC, 24(S)-hydroxycholesterol, reference compound]
- activation of GPR17 or potentiation of MDL ([1]; calcium mobilization assay): not able to confirm
- activation of GPR17 or potentiation of MDL [2]: not able to confirm

Compound: O=C(O)c1ccc(OCCCc2ccc(OCCCCOc3ccccc3)cc2)c(C(=O)NC2CCCC(C(=O)O)C2)c1 (stereo not shown) [BayCysLT2, reference compound]
- antagonist activity at GPR17 ([1]; calcium mobilization assay): full antagonist activity
- block of MDL-stimulated receptor activation of GPR17 [3]: completely

Compound: COc1cc(C(=O)NC2CCCc3c2[nH]c2c(Cl)cccc32)cc(OC)c1OC (stereo not shown) [Compd 2, N-(8-Chloro-2,3,4,9-tetrahydro-1H-carbazol-1-yl)-3,4,5-trimethoxybenzamide]
- Emax [1]: 47.4 ± 3.11%

Compound: O=C(NC1CCCc2c1[nH]c1c(Cl)cccc21)c1ccc2c(c1)OCO2 (stereo not shown) [Compd 3, N-(8-Chloro-2,3,4,9-tetrahydro-1H-carbazol-1-yl)benzo[d][1,3]dioxole-5-carboxamide]
- Emax [1]: 77.4 ± 3.46%
- IC50 [1, 6]: 11.4 ± 0.59 µM

Compound: COc1ccc(C(=O)NC2CCCc3c2[nH]c2c(Cl)cccc32)cc1C (stereo not shown) [Compd 4, N-(8-Chloro-2,3,4,9-tetrahydro-1H-carbazol-1-yl)-4-methoxy-3-methylbenzamide]
- Emax [1]: 81.5 ± 1.23%
- IC50 [1, 6]: 10.7 ± 0.29 µM

Compound: COc1ccc(C(=O)NC2CCCc3c2[nH]c2c(Cl)cccc32)cc1S(C)(=O)=O (stereo not shown) [Compd 5, N-(8-Chloro-2,3,4,9-tetrahydro-1H-carbazol-1-yl)-4-methoxy-3-(methylsulfonyl)benzamide]
- Emax [1]: 50.6 ± 3.54%

Compound: CS(=O)(=O)c1ccc(C(=O)NC2CCCc3c2[nH]c2c(Cl)cccc32)cc1F (stereo not shown) [Compd 6, N-(8-Chloro-2,3,4,9-tetrahydro-1H-carbazol-1-yl)-3-fluoro-4-(methylsulfonyl)benzamide]
- Emax [1]: 38 ± 2.73%

Compound: CS(=O)(=O)c1ccc(C(=O)NC2CCCc3c2[nH]c2c(Cl)cccc32)cc1[N+](=O)[O-] (stereo not shown) [Compd 7, N-(8-Chloro-2,3,4,9-tetrahydro-1H-carbazol-1-yl)-4-(methylsulfonyl)-3-nitrobenzamide]
- Emax [1]: 117 ± 6.08%
- IC50 [1, 6]: 4.42 ± 0.34 µM

Compound: O=C(NC1CCCc2c1[nH]c1c(Cl)cccc21)c1ccc([N+](=O)[O-])c([N+](=O)[O-])c1 (stereo not shown) [Compd 8, N-(8-Chloro-2,3,4,9-tetrahydro-1H-carbazol-1-yl)-3,4-dinitrobenzamide]
- Emax [1]: 74.1 ± 2.16%
- attenuation of MDL-mediated inhibition of forskolin-stimulated cAMP [4]: significantly attenuated

Compound: COc1cc(C(=O)NC2CCCc3c2[nH]c2c(Cl)cccc32)ccc1F (stereo not shown) [Compd 9, N-(8-Chloro-2,3,4,9-tetrahydro-1H-carbazol-1-yl)-4-fluoro-3-methoxybenzamide]
- Emax [1]: 90.3 ± 7.04%
- IC50 [1, 6]: 12.6 ± 0.89 µM

Compound: Cc1cc(C(=O)NC2CCCc3c2[nH]c2c(Cl)cccc32)ccc1Br (stereo not shown) [Compd 10, 4-Bromo-N-(8-chloro-2,3,4,9-tetrahydro-1H-carbazol-1-yl)-3-methylbenzamide]
- Emax [1]: 52.8 ± 2.26%

Compound: Cc1cc([N+](=O)[O-])ccc1C(=O)NC1CCCc2c1[nH]c1c(Cl)cccc21 (stereo not shown) [Compd 11, N-(8-Chloro-2,3,4,9-tetrahydro-1H-carbazol-1-yl)-2-methyl-4-nitrobenzamide]
- Emax [1]: 29.8 ± 1.21%

Compound: O=C(NC1CCCc2c1[nH]c1c(Cl)cccc21)c1c(F)cc([N+](=O)[O-])cc1F (stereo not shown) [Compd 12, N-(8-chloro-2,3,4,9-tetrahydro-1H-carbazol-1-yl)-2,6-difluoro-4-nitrobenzamide]
- Emax [1]: 44.3 ± 3.47%

Compound: O=C(NC1CCCc2c1[nH]c1c(Cl)cccc21)c1ccc(F)c([N+](=O)[O-])c1 (stereo not shown) [Compd 13, N-(8-chloro-2,3,4,9-tetrahydro-1H-carbazol-1-yl)-4-fluoro-3-nitrobenzamide]
- Emax [1]: 101 ± 9.98%
- IC50 [1, 6]: 11.6 ± 1.19 µM

Compound: O=C(NC1CCCc2c1[nH]c1c(Cl)cccc21)C(NS(=O)(=O)c1cccs1)c1ccccc1 (stereo not shown) [Compd 14, N-(8-Chloro-2,3,4,9-tetrahydro-1H-carbazol-1-yl)-2-phenyl-2-(thiophene-2-sulfonamido)acetamide]
- Emax [1]: 104 ± 9.32%
- IC50 [1, 6]: 7.94 ± 0.49 µM

Compound: O=C(O)c1ccc(C(=O)NC2CCCc3c2[nH]c2c(Cl)cccc32)cc1 (stereo not shown) [Compd 15, 4-((8-Chloro-2,3,4,9-tetrahydro-1H-carbazol-1-yl)carbamoyl)benzoic acid]
- Emax [1]: 49.4 ± 2.45%
- attenuation of MDL-mediated inhibition of forskolin-stimulated cAMP [4]: significantly attenuated
- attenuation of MDL-mediated inhibition of GLP-1 secretion [5]: significantly attenuated

Compound: O=C(NC1CCCc2c1[nH]c1c(Cl)cccc21)c1ccc(Br)cc1 (stereo not shown) [Compd 16, 4-Bromo-N-(8-chloro-2,3,4,9-tetrahydro-1H-carbazol-1-yl)benzamide]
- Emax [1]: 40.4 ± 4.47%

Compound: Cc1ccc(C(=O)NC2CCCc3c2[nH]c2c(Cl)cccc32)cc1 (stereo not shown) [Compd 17, N-(8-chloro-2,3,4,9-tetrahydro-1H-carbazol-1-yl)-4-methylbenzamide]
- Emax [1]: 62.6 ± 4.84%

Compound: COc1ccc(C(=O)NC2CCCc3c2[nH]c2ccccc32)cc1OC (stereo not shown) [Compd 18, 3,4-Dimethoxy-N-(2,3,4,9-tetrahydro-1H-carbazol-1-yl)benzamide]
- Emax [1]: 72.1 ± 4.2%
- IC50 [1, 7]: 9.44 ± 1.25 µM

Compound: COc1ccc(C(=O)NC2CCCc3c2[nH]c2c(Br)cccc32)cc1OC (stereo not shown) [Compd 19, N-(8-Bromo-2,3,4,9-tetrahydro-1H-carbazol-1-yl)-3,4-dimethoxybenzamide]
- Emax [1]: 125 ± 4.3%
- IC50 [1, 7]: 4.29 ± 0.48 µM

Compound: COc1cc(OC)cc(C(=O)NC2CCCc3c2[nH]c2c(Br)cccc32)c1 (stereo not shown) [Compd 20, N-(8-bromo-2,3,4,9-tetrahydro-1H-carbazol-1-yl)-3,5-dimethoxybenzamide]
- Emax [1]: 55.5 ± 1.74%

Compound: COc1ccc(C(=O)NC2CCCc3c2[nH]c2c(C)cc(C)cc32)cc1OC (stereo not shown) [Compd 21, N-(6,8-Dimethyl-2,3,4,9-tetrahydro-1H-carbazol-1-yl)-3,4-dimethoxybenzamide]
- Emax [1]: 87.5 ± 0.92%
- IC50 [1, 7]: 12.2 ± 0.5 µM
- attenuation of MDL-mediated inhibition of forskolin-stimulated cAMP [4]: significantly attenuated

Compound: COc1cc(OC)cc(C(=O)NC2CCCc3c2[nH]c2c(C)cc(C)cc32)c1 (stereo not shown) [Compd 22, N-(6,8-Dimethyl-2,3,4,9-tetrahydro-1H-carbazol-1-yl)-3,5-dimethoxybenzamide]
- Emax [1]: 68.2 ± 1.59%

Compound: COc1ccc(C(=O)NC2CCCc3c2[nH]c2c(C)ccc(C)c32)cc1OC (stereo not shown) [Compd 23, N-(5,8-dimethyl-2,3,4,9-tetrahydro-1H-carbazol-1-yl)-3,4-dimethoxybenzamide]
- Emax [1]: 83.7 ± 2.39%
- IC50 [1, 7]: 11.8 ± 0.5 µM

Compound: COc1ccc(C(=O)NC2CCCc3c2[nH]c2c(C(=O)O)cccc32)cc1OC (stereo not shown) [Compd 24, 1-(3,4-Dimethoxybenzamido)-2,3,4,9-tetrahydro-1H-carbazole-8-carboxylic acid]
- Calcium assay IC50(μM) Avg ± SEM ([1]; Table 3): inactive

Compound: COc1ccc(C(=O)NC2CCCc3c2[nH]c2cc(C(=O)O)ccc32)cc1OC (stereo not shown) [Compd 25, 1-(3,4-Dimethoxybenzamido)-2,3,4,9-tetrahydro-1H-carbazole-7-carboxylic acid]
- Calcium assay IC50(μM) Avg ± SEM ([1]; Table 3): inactive

Compound: COc1ccc(C(=O)NC2CCCc3c2[nH]c2ccc(C(=O)O)cc32)cc1OC (stereo not shown) [Compd 26, 1-(3,4-Dimethoxybenzamido)-2,3,4,9-tetrahydro-1H-carbazole-6-carboxylic acid]
- Calcium assay IC50(μM) Avg ± SEM ([1]; Table 3): inactive

Compound: C=C[C@@]1(C)CC(=O)[C@]2(O)[C@@]3(C)[C@@H](O)CCC(C)(C)[C@@H]3[C@H](O)[C@H](OC(C)=O)[C@@]2(C)O1 [Forskolin, forskolin, reference compound]
- cAMP levels after forskolin stimulation ([4]; forskolin alone, basal 0.59 ± 0.04 nM): 4.7 ± 0.36 nM

Compound: CN(C)C(=O)CCSC(SCCC(=O)O)c1cccc(/C=C/c2ccc3ccc(Cl)cc3n2)c1 (stereo not shown) [MK571, reference compound]
- antagonist activity at GPR17 ([1]; calcium mobilization assay): no antagonist activity

Compound: COc1cccc(-c2ccccc2-c2ccc(C(=O)Nc3ccc(OC)cc3C(=O)O)o2)c1 [PSB-22269]
- potency in a binding assay and functional assays [3]: nanomolar range potency

Compound: CSCCNc1nc(SCCC(F)(F)F)nc2c1ncn2[C@@H]1O[C@H](COP(=O)(O)OP(=O)(O)C(Cl)(Cl)P(=O)(O)O)[C@@H](O)[C@H]1O [cangrelor]
- block of MDL-stimulated receptor activation [3]: failed to block

Compound: COC(=O)[C@H](c1ccccc1Cl)N1CCc2sccc2C1 [clopidogrel, reference compound]
- antagonist activity at GPR17 ([1]; calcium mobilization assay): do not observe antagonist activity

Compound: CC(C)(O)c1ccccc1CC[C@@H](SCC1(CC(=O)O)CC1)c1cccc(/C=C/c2ccc3ccc(Cl)cc3n2)c1 [montelukast, reference compound]
- antagonist activity at GPR17 ([1]; calcium mobilization assay): partial antagonist activity
- block of MDL-stimulated receptor activation of GPR17 [3]: partially

Compound: CC(=O)Oc1cc2c(s1)CCN(C(C(=O)C1CC1)c1ccccc1F)C2 (stereo not shown) [prasugrel, reference compound]
- antagonist activity at GPR17 ([1]; calcium mobilization assay): do not observe antagonist activity

Compound: CCCSc1nc(N[C@@H]2C[C@H]2c2ccc(F)c(F)c2)c2nnn([C@@H]3C[C@H](OCCO)[C@@H](O)[C@H]3O)c2n1 [ticagrelor]
- block of MDL-stimulated receptor activation [3]: failed to block

Compound: Clc1ccccc1CN1CCc2sccc2C1 [ticlopidine, reference compound]
- antagonist activity at GPR17 ([1]; calcium mobilization assay): do not observe antagonist activity

Compound: CCCc1c(OCCCCc2nnn[nH]2)ccc(C(C)=O)c1O [tomelukast, reference compound]
- antagonist activity at GPR17 ([1]; calcium mobilization assay): partial antagonist activity

Compound: COc1cc(C(=O)NS(=O)(=O)c2ccccc2C)ccc1Cc1cn(C)c2ccc(NC(=O)OC3CCCC3)cc12 [zafirlukast, reference compound]
- antagonist activity at GPR17 ([1]; calcium mobilization assay): full antagonist activity
